Test results from paper PMC11601558, “SLC6A19 inhibition facilitates urinary neutral amino acid excretion and lowers plasma phenylalanine” (JCI Insight, 2024).
Several values for one entry are separate records, joined by “and”; a condition that tells them apart may be missing. Identical values can stand only once. Like-named read-outs stand apart in the source and are kept apart here.

Experiment: JN-170 plasma pharmacokinetics in Pah^enu2 mice, single oral dose
Format: in vivo, mouse
Design: JN-170 plasma level (Fig 3a) / JN-170 plasma concentration: unit not given here
Conditions: for JN-170 plasma level (Fig 3a) / concentration at 8 h / concentration at 1 h / concentration at 3 h: individual Pah^enu2 mice; for JN-170 plasma concentration: Fig S3a, Pahenu2 mice, individual animals; for concentration at 8 h / concentration at 1 h / concentration at 3 h: male, BTBR-Pah<enu2>/J (Pah^enu2), mouse, plasma, oral, read-out: JN-170 plasma level (Fig 3a)
Procedure: Male homozygous BTBR-Pah<enu2>/J (Pah^enu2) aged 10–13 weeks were purchased from Jackson Laboratory (no. 002232). Immediately before dosing, each animal’s bladder was manually emptied and a plasma sample was drawn. Animals were dosed by oral gavage with vehicle (10% DMSO, 20% 2-hydroxypropyl-β-cyclodextrin [Sigma-Aldrich]) followed by a 1-week washout prior to dosing with JN-170 at doses ranging from 50 to 250 mg/kg. Following dosing with vehicle or JN-170, animals were individually placed in metabolic cages to collect urine samples. After collection of each urine sample, cages were rinsed with ultra-pure water to recover residual analytes. Blood samples were collected predose as well as 1, 3, 8, 12, and 24 hours after dosing with vehicle or JN-170 into tubes with EDTA as a […], and plasma was separated by centrifuging samples at 2,200g for 5 minutes at 4°C. Throughout the study, mice had access to food and water ad libitum. Plasma and urine samples were stored at –80°C until processing.Ten-week-old male WT C57Bl/6J animals (Si Bei Fu Laboratory Animal Technology Co. Ltd.) were dosed either with vehicle or 50–250 mg/kg JN-170 by oral gavage and blood and urine samples were collected as described. All animals had unrestricted access to food and water during the study; C57Bl/6J were kept on rodent maintenance diet from Beijing Keao Xieli, Pah^enu2 mice were kept on Teklad diet no. T.2018.
Plasma sample analyses were carried out by liquid chromatography tandem mass spectrometry (LC-MS/MS). Plasma samples were mixed 1:1 with carbamazepine or ^13C6-Phe as internal standards for JN-170 and Phe, respectively. Plasma proteins were precipitated by adding 4 volumes of acetonitrile (ACN) and 0.1% formic acid (FA) followed by centrifugation for 5 minutes at 2,100g. Supernatants were diluted 1:1 in ACN and 0.1% FA. For JN-170, a Waters HSS T3 reversed phase column was used for separation using a binary gradient of 0.1% FA in water (mobile phase A) to 0.1% in ACN (mobile phase B). At a flow rate of 0.8 mL/min, the mobile phase gradient increased from an initial 25% phase B to 95% phase B over 30 seconds. After, 1.5 minutes, the gradient was returned to 25% mobile phase B. For detection of Phe, an Acquity UPLC ethylene bridged hybrid (BEH) amide column was used, with a binary gradient of 10 mM ammonium acetate in 95:5:1 H2O:ACN:FA (mobile phase A) to 10 mM ammonium acetate in 95:5:1 ACN:H2O:FA (mobile phase B). At a flow rate of 0.5 mL/min, the mobile phase gradient changed from an initial 100% phase B to 50% phase B over 2.1 minutes. It was returned to 100% phase B after 4 minutes. Analytes were detected using a Sciex API-5500 in multiple reaction monitoring mode using an electrospray ionization source in the positive ion mode with the following ion transitions: m/z 435.2/84.1 (JN-170), 237.1/194.1 (carbamazepine), 166.1/120.1 (Phe), 172.2/126.2 for (^13C6-Phe). Analyte concentrations were calculated with a 1/×^2 linear regression over a concentration range of 1 or 2 to 5,000 ng/mL for JN-170 and 0.05–100 ng/mL for Phe.

coverage above the in vitro IC75 (50 mg/kg): approximately 3 hours
JN-170 plasma level (Fig 3a) (50 mg/kg oral, 24 h): 8.45 and 26.4 and 9.59 and 19.9
JN-170 plasma level (Fig 3a) (250 mg/kg oral, 1 h): 16600 (2×) and 17000 and 16300 and 17600
JN-170 plasma level (Fig 3a) (250 mg/kg oral, 24 h): 125 and 63 and 72.6
concentration at 8 h (50 mg/kg, 50 mg/kg oral): 456 ng/mL
concentration at 1 h (100 mg/kg, 100 mg/kg oral, 1 h): 5780 ng/mL
concentration at 3 h (100 mg/kg, 100 mg/kg oral): 4240 ng/mL
concentration at 8 h (100 mg/kg, 100 mg/kg oral): 2280 ng/mL
concentration at 1 h (200 mg/kg, 200 mg/kg oral, 1 h): 8750 ng/mL
concentration at 3 h (200 mg/kg, 200 mg/kg oral): 8710 ng/mL
concentration at 8 h (200 mg/kg, 200 mg/kg oral): 8610 ng/mL
concentration at 1 h (250 mg/kg, 250 mg/kg oral, 1 h): 18300 ng/mL
concentration at 3 h (250 mg/kg, 250 mg/kg oral): 14800 ng/mL
concentration at 8 h (250 mg/kg, 250 mg/kg oral): 11200 ng/mL
Compound: N#Cc1ccc(-c2noc([C@]3(C(F)(F)F)CCN(C(=O)NCCC4(N)CC4)C3)n2)cc1 [JN-170]
JN-170 plasma concentration (time 1 h): 10400 and 12200 and 13800 and 8750 and 11500 and 12500
JN-170 plasma concentration (time 3 h): 8500 and 9610 and 10900 and 8710 and 9900 and 11900
JN-170 plasma concentration (time 8 h): 11000 and 6710 and 8280 and 8610 and 8480 and 9150
JN-170 plasma concentration (time 12 h): 7430 and 5630 and 5750 and 12700 and 9060 and 6600
JN-170 plasma concentration (time 24 h): 33.1 and 16 and 26.9 and 82.7 and 103 and 19.9
